Experimental data published in ChEMBL document CHEMBL1149861, “Inhibition of 15-lipoxygenase-catalysed oxygenation of arachidonic acid by substituted benzoic acids” (Bioorg Med Chem, 2008).

test system: Glycine max; assay: Inhibition of soybean 15-lipoxygenase

Compound | inhibition [%]
O=C(O)c1c(O)cccc1O | 21.2
O=C(O)c1cc(O)ccc1O | 49.9
O=C(O)c1ccc(O)cc1O | 47.7
O=C(O)c1ccccc1 | 51.6
O=C(O)c1cccc(O)c1O | 47
O=C(O)c1cc(O)cc(O)c1 | 58.1
COc1cc(C(=O)O)ccc1O | 45.4
O=C(O)c1ccccc1O | 48.4
O=C(O)c1cccc(O)c1 | 46
O=C(O)c1ccc(O)cc1 | 47.6
O=C(O)/C=C/c1ccc(O)c(O)c1 | 36.2
O=C(O)c1cc(O)c(O)c(O)c1 | 60.5
O=C(O)c1ccc(O)c(O)c1 | 73.3
